Data as given in patent US8334409B2, “Process for purifying rasagiline base” (Teva Pharmaceutical Industries, Ltd., priority 2008, dated 2012).

Tests used:
[1] = low levels of volatiles (water and residual solvents) by KF and TGA
[2] = alcohols, acetone, ethyl acetate, toluene, diethyl ether, dioxane, hexane and n-heptane

C#CCN[C@@H]1CCc2ccccc21 [rasagiline base, R(+)-N-propargyl-1-aminoindan]
hygroscopicity [1]: not hygroscopic
solubility in polar and non-polar organic solvents [2]: freely soluble
